Measured values reported in ChEMBL document CHEMBL1201862, “PubChem BioAssay data set” (2004).
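Step 1: Grow cells in 96-well plates. Step 2: Expose to compound for 48 hours at 5 concentrations. Step 3: Interpolate endpoints linearly; if unreached, use highest concentration. GI50 = concentration required for 50% inhibition of growth.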 Activity calls are given as the source filed them. Cut-off read from the data, not from the text of the source: active = GI50 up to about 1.1 µM and inactive = higher.

Legend:
Test in all cases: DTP human tumour cell line panel, 48 h
HOP-62 = tested on: HOP-62
HCT-15 = tested on: HCT-15
SW-620 = tested on: SW-620
KM12 = tested on: KM12
SF-539 = tested on: SF-539
UACC-257 = tested on: UACC-257
SR = tested on: SR
HL-60 = tested on: HL-60
HCT-116 = tested on: HCT-116
A498 = tested on: A498
U-251 = tested on: U-251
MOLT-4 = tested on: MOLT-4
LOX IMVI = tested on: LOX IMVI
TK-10 = tested on: TK-10
IGROV-1 = tested on: IGROV-1
MDA-MB-231 = tested on: MDA-MB-231
MDA-MB-435 = tested on: MDA-MB-435
HOP-92 = tested on: HOP-92
SNB-75 = tested on: SNB-75
786-0 = tested on: 786-0

Row | Structure (SMILES) | GI50 (HOP-62) | GI50 (HCT-15) | GI50 (SW-620) | GI50 (KM12) | GI50 (SF-539) | GI50 (UACC-257) | GI50 (SR) | GI50 (HL-60) | GI50 (HCT-116) | GI50 (A498) | GI50 (U-251) | GI50 (MOLT-4) | GI50 (LOX IMVI) | GI50 (TK-10) | GI50 (IGROV-1) | GI50 (MDA-MB-231) | GI50 (MDA-MB-435) | GI50 (HOP-92) | GI50 (SNB-75) | GI50 (786-0)
1 | Sc1nnc(SCc2ccccc2Cl)c2nc[nH]c12 | > 100 µM (inactive) | > 100 µM | > 100 µM (inactive) | > 100 µM (inactive) | > 100 µM (inactive) | > 100 µM (inactive) | > 100 µM (inactive) | > 100 µM (inactive) | > 100 µM (inactive) | > 100 µM (inactive) | > 100 µM (inactive) | > 100 µM (inactive) | > 100 µM (inactive) | > 100 µM (inactive) | > 100 µM (inactive) | > 100 µM (inactive) | > 100 µM (inactive) | > 100 µM (inactive) | > 100 µM (inactive) | > 100 µM (inactive)
2 | COc1ccc(C(O)/C(=N/N)c2nc3ccc(Cl)cc3nc2O)cc1 (stereo not drawn) | > 100 µM (inactive) | > 100 µM | > 100 µM (inactive) | > 100 µM (inactive) | > 100 µM (inactive) | > 100 µM (inactive) | > 100 µM (inactive) | > 100 µM (inactive) | > 100 µM (inactive) | > 100 µM (inactive) | > 100 µM (inactive) | > 100 µM (inactive) | > 100 µM (inactive) | > 100 µM (inactive) | > 100 µM (inactive) | > 100 µM (inactive) | > 100 µM (inactive) | 63.4 µM (inactive) | > 100 µM (inactive) | > 100 µM (inactive)
3 | O=C(/C=C/c1ccc(OCc2cccc(Cl)c2)cc1)NO | 18.2 µM (inactive) | 5.05 µM | 10.1 µM (inactive) | 16.5 µM (inactive) | 17.2 µM (inactive) | 38 µM (inactive) | 3.55 µM (inactive) | 11.1 µM (inactive) | 11.5 µM (inactive) | 12.1 µM (inactive) | 15 µM (inactive) | 2.67 µM (inactive) | 6.28 µM (inactive) | 20.9 µM (inactive) | 11.9 µM (inactive) | 19.7 µM (inactive) | 18.5 µM (inactive) | 14.1 µM (inactive) | 20.4 µM (inactive) | 10.7 µM (inactive)
4 | C[N+]1(C)C/C(=C\C=C\c2ccccc2)C(=O)/C(=C/C=C/c2ccccc2)C1 | 21.3 µM (inactive) | 40.2 µM | 9.79 µM (inactive) | 2.93 µM (inactive) | 7.55 µM (inactive) | 8.39 µM (inactive) | 3.1 µM (inactive) | 1.02 µM (active) | 9.48 µM (inactive) | 60.1 µM (inactive) | 3.89 µM (inactive) | 4.06 µM (inactive) | 12.2 µM (inactive) | 33.4 µM (inactive) | 2.99 µM (inactive) | 10.4 µM (inactive) | 4.28 µM (inactive) | 17.9 µM (inactive) | 6.73 µM (inactive) | 17.8 µM (inactive)
5 | COc1cc(C=O)cc(/C=N/c2ccccn2)c1O | 16 µM (inactive) | 29 µM | 31.6 µM (inactive) | 24.5 µM (inactive) | 3.01 µM (inactive) | 8.59 µM (inactive) | 2.18 µM (inactive) | 33.4 µM (inactive) | 35.4 µM (inactive) | 9.64 µM (inactive) | 13 µM (inactive) | 24.5 µM (inactive) | 14.1 µM (inactive) | 79.4 µM (inactive) | – | 9.02 µM (inactive) | 9.29 µM (inactive) | 2.72 µM (inactive) | 3.78 µM (inactive) | 7.36 µM (inactive)
6 | N#CCCN(CCCN(CCCN(C(=O)Nc1ccccc1)c1ccccc1)C(=O)Nc1ccccc1)C(=O)Nc1ccccc1 | > 8.75 µM (inactive) | > 100 µM | > 8.75 µM (inactive) | > 8.75 µM (inactive) | > 8.75 µM (inactive) | > 8.75 µM (inactive) | 0.998 µM (active) | > 8.75 µM (inactive) | > 8.75 µM (inactive) | > 8.75 µM (inactive) | > 100 µM (inactive) | > 8.75 µM (inactive) | > 100 µM (inactive) | > 8.75 µM (inactive) | > 8.75 µM (inactive) | > 8.75 µM (inactive) | > 8.75 µM (inactive) | 20.2 µM (inactive) | > 8.75 µM (inactive) | > 8.75 µM (inactive)
7 | CCOC(=O)c1nc2cc(C(F)(F)F)ccc2nc1Nc1ccc(Cl)c(Cl)c1 | 76.6 µM (inactive) | > 100 µM | 73.3 µM (inactive) | 65 µM (inactive) | > 100 µM (inactive) | > 100 µM (inactive) | 49.9 µM (inactive) | 31.8 µM (inactive) | 69.7 µM (inactive) | > 100 µM (inactive) | 53.6 µM (inactive) | > 100 µM (inactive) | > 100 µM (inactive) | > 100 µM (inactive) | > 100 µM (inactive) | > 100 µM (inactive) | 62.7 µM (inactive) | 24.2 µM (inactive) | 58.1 µM (inactive) | > 100 µM (inactive)
8 | Nc1nc2c(=O)c3ccccc3sc2s1 | 29.2 µM (inactive) | 34.5 µM | > 100 µM (inactive) | > 100 µM (inactive) | 17.3 µM (inactive) | 54.2 µM (inactive) | 48.3 µM (inactive) | 28.9 µM (inactive) | 57.8 µM (inactive) | 25.4 µM (inactive) | 45.1 µM (inactive) | 47.4 µM (inactive) | 46.1 µM (inactive) | 41.5 µM (inactive) | 43.2 µM (inactive) | 31.9 µM (inactive) | > 100 µM (inactive) | 37.4 µM (inactive) | 40.5 µM (inactive) | 34.7 µM (inactive)
9 | O=C(NC(=O)c1ccccc1[N+](=O)[O-])Nc1ccc(Oc2ncc(Br)cn2)c(Cl)c1 | 0.0249 µM (active) | 0.0441 µM | 0.0237 µM (active) | 0.023 µM (active) | 0.0203 µM (active) | 0.0237 µM (active) | 0.0296 µM (active) | 0.00383 µM (active) | 0.0255 µM (active) | 0.0225 µM (active) | 0.0427 µM (active) | 0.033 µM (active) | 0.0528 µM (active) | 0.0362 µM (active) | 0.0258 µM (active) | 0.0469 µM (active) | 0.00802 µM (active) | 0.0495 µM (active) | 0.0231 µM (active) | 0.0215 µM (active)
10 | COc1ccc(NC(=O)N(C)CC2(O)CCC(C(C)(C)C)CC2)cc1 (stereo not drawn) | > 100 µM (inactive) | 61.7 µM | > 100 µM (inactive) | 42.7 µM (inactive) | > 100 µM (inactive) | 33.9 µM (inactive) | > 100 µM (inactive) | 63.5 µM (inactive) | 83.4 µM (inactive) | 81.3 µM (inactive) | > 100 µM (inactive) | 52.6 µM (inactive) | 25.2 µM (inactive) | 37 µM (inactive) | > 100 µM (inactive) | 41.8 µM (inactive) | 57.1 µM (inactive) | 3.66 µM (inactive) | 52.6 µM (inactive) | > 100 µM (inactive)
11 | COc1ccc(C2C(C#N)=C(S)N(C3OC(CO)C(O)C(O)C3O)C(c3ccccc3)=C2C(C)=O)cc1 (stereo not drawn) | 67.1 µM (inactive) | 74.6 µM | 7.18 µM (inactive) | > 100 µM (inactive) | 78.2 µM (inactive) | 77.4 µM (inactive) | 40.3 µM (inactive) | 39.7 µM (inactive) | 70.6 µM (inactive) | > 100 µM (inactive) | 53.2 µM (inactive) | 28.1 µM (inactive) | 60.1 µM (inactive) | > 100 µM (inactive) | > 100 µM (inactive) | 95.5 µM (inactive) | 32.6 µM (inactive) | 46.1 µM (inactive) | 23.6 µM (inactive) | 67.3 µM (inactive)
12 | O=c1c2cc(Br)cc(Br)c2[nH]c(=S)n1-c1ccc(/N=N/c2ccc(O)c3cccnc23)cc1 | 33.3 µM (inactive) | – | 29.8 µM (inactive) | > 100 µM (inactive) | 11.5 µM (inactive) | 50.5 µM (inactive) | 3.61 µM (inactive) | 38.1 µM (inactive) | 26.2 µM (inactive) | > 100 µM (inactive) | 19.7 µM (inactive) | 24.8 µM (inactive) | 24.5 µM (inactive) | 66.1 µM (inactive) | 11.2 µM (inactive) | 32.2 µM (inactive) | 35.4 µM (inactive) | 18 µM (inactive) | 29.2 µM (inactive) | 25.7 µM (inactive)
13 | O=C(/C=C/C=C/c1ccccc1)CCc1ccccc1 | > 100 µM (inactive) | 94.4 µM | 37.6 µM (inactive) | 22.1 µM (inactive) | > 100 µM (inactive) | > 100 µM (inactive) | 20.3 µM (inactive) | 23.4 µM (inactive) | 40.7 µM (inactive) | > 100 µM (inactive) | 61 µM (inactive) | 21 µM (inactive) | 79.4 µM (inactive) | > 100 µM (inactive) | > 100 µM (inactive) | > 100 µM (inactive) | 72.6 µM (inactive) | > 100 µM (inactive) | > 100 µM (inactive) | > 100 µM (inactive)
14 | N=C(N)N/N=C/c1c(Cl)nc2sccn12 | 21.5 µM (inactive) | > 10 µM | 18 µM (inactive) | 16.4 µM (inactive) | 19.8 µM (inactive) | 23.4 µM (inactive) | 22.9 µM (inactive) | 17.4 µM (inactive) | 15.3 µM (inactive) | 28.2 µM (inactive) | 29.9 µM (inactive) | 16.4 µM (inactive) | 18.9 µM (inactive) | 52.2 µM (inactive) | 53.5 µM (inactive) | 33.6 µM (inactive) | 36.1 µM (inactive) | 21.1 µM (inactive) | 38.1 µM (inactive) | 17.1 µM (inactive)
